# Laboratory results: patent US20240261417A1, “SOS1 DEGRADING AGENT AND PREPARATION METHOD THEREFOR AND APPLICATION THEREOF” (SHANGHAI LEADINGTAC PHARMACEUTICAL CO. LTD., priority 2021, published 2024)
# What was measured:
# [1] = test system: KRAS G12V mutant human lung adenocarcinoma cells NCI-H441; experiment: 3D cell proliferation inhibition assay, NCI-H441; type: cell-based; conditions: Homo sapiens, NCI-H441, 168 h, 7 days, CTG
# Procedure: (§1) Inhibition of 3D cell proliferation by the compounds was investigated on KRAS G12C mutant human non-small cell lung cancer cells NCI-H358 (ATCC or Stem Cell Bank, Chinese Academy of Sciences), KRAS G12D mutant human metastatic pancreatic adenocarcinoma cells AsPC-1 (ATCC), KRAS G12V mutant human lung adenocarcinoma cells NCI-H441 (ATCC), and KRAS G13D mutant human colorectal adenocarcinoma epithelial cells DLD-1 (ATCC). The specific procedures were as follows:
# (§2) 200 nL of compound solution diluted in a gradient was added to corresponding microwells of a 384-well low-adsorption microwell plate (Corning, 3657) using an Echo sonic pipetting system (Labcyte, Echo 550), so that the final concentration of the test compound in the reaction system was in a range of 20000 nM-0.008 nM. Then 40 μL of cells at a certain density were added to the corresponding microplate. In addition to test wells for the test compounds, both a DMSO control well and a medium control well were set, with the DMSO control well containing DMSO and cells and the medium well containing only medium. After sample loading, the plate cover was applied, and the 384-well low-adsorption microplate was incubated in an incubator at 37° C. with 5% carbon dioxide for 7 days. After 7 days, the microplate was taken out, and 40 μL of CTG reagent (Promega, G9683) was added to each well. The plate was incubated at room temperature for 30 min and read on a microplate reader EnVision using the chemiluminescence program. The inhibition rates of the compounds at each concentration were calculated by the formula for the percentage inhibition of cell proliferation: inhibition rate %=(mean value of DMSO control group−single concentration reading value of compound)/(mean value of DMSO control group−mean value of medium control group)×100, and then nonlinear curve fitting was performed by GraphPad Prism 8 in the logarithmic concentration-inhibition rate to obtain the IC50 values of the compounds.
# [2] = test system: KRAS G12C mutant human non-small cell lung cancer cells NCI-H358; experiment: 3D cell proliferation inhibition assay, NCI-H358; type: cell-based; conditions: Homo sapiens, NCI-H358, 168 h, 7 days, CTG
# Procedure: as §1, §2
SMILES,IC50 [1],IC50 [2]
"CNCc1ccccc1-c1csc([C@@H](C)Nc2nc(C)nc3cc(OC)c([C@H]4CC[C@H](C(=O)N5CCN(CC6CCC7(CC6)CCN(C(=O)c6ccc(OC)c(N8CCC(=O)NC8=O)c6)CC7)CC5)CC4)cc23)c1 [Example 73, 1-(2-methoxy-5-(9-((4-((1R,4R)-4-(7-methoxy-2-methyl-4-(((R)-1-(4-(2-((methylamino)methyl)phenyl)thien-2-yl)ethyl)amino)quinazolin-6-yl)cyclohexane-1-carbonyl)piperazin-1-yl)methyl)-3-azaspiro[5.5]undecane-3-carbonyl)phenyl)dihydropyrimidine-2,4(1H,3H)-dione]",100 to 1000 nM,≤ 15 nM
"COc1cc2nc(C)nc(N[C@H](C)c3cc(N)cc(C(F)(F)F)c3)c2cc1[C@H]1CC[C@H](C(=O)N2CCN(CC3CCC4(CC3)CCN(C(=O)c3ccc(Cl)c(N5CCC(=O)NC5=O)c3)CC4)CC2)CC1 [Example 2, 1-(5-(9-((4-((1R,4R)-4-(4-(((R)-1-(3-amino-5-(trifluoromethyl)phenyl)ethyl)amino)-7-methoxy-2-methylquinazolin-6-yl)cyclohexane-1-carbonyl)piperazin-1-yl)methyl)-3-azaspiro[5.5]undecane-3-carbonyl)-2-chlorophenyl)dihydropyrimidine-2,4(1H,3H)-dione]",100 to 1000 nM,≤ 15 nM
"COc1cc2nc(C)nc(N[C@H](C)c3cc(N)cc(C(F)(F)F)c3)c2cc1[C@H]1CC[C@H](C(=O)N2CCC(CCOCC3CCN(C(=O)c4ccc(Cl)c(N5CCC(=O)NC5=O)c4)CC3)CC2)CC1 [Example 19, 1-(5-(4-((2-(1-((1R,4R)-4-(4-(((R)-1-(3-amino-5-(trifluoromethyl)phenyl)ethyl)amino)-7-methoxy-2-methylquinazolin-6-yl)cyclohexane-1-carbonyl)piperidin-4-yl)ethoxy)methyl)piperidine-1-carbonyl)-2-chlorophenyl)dihydropyrimidine-2,4(1H,3H)-dione]",50 to 100 nM,≤ 15 nM
"COc1cc2nc(C)nc(N[C@H](C)c3cc(N)cc(C(F)(F)F)c3)c2cc1[C@H]1CC[C@H](C(=O)N2CCN(CCC3CCC4(CC3)CCN(C(=O)c3ccc(Cl)c(N5CCC(=O)NC5=O)c3)CC4)CC2)CC1 [Example 1, 1-(5-(9-(2-(4-((1R,4R)-4-(4-(((R)-1-(3-amino-5-(trifluoromethyl)phenyl)ethyl)amino)-7-methoxy-2-methylquinazolin-6-yl)cyclohexane-1-carbonyl)piperazin-1-yl)ethyl)-3-azaspiro[5.5]undecane-3-carbonyl)-2-chlorophenyl)dihydropyrimidine-2,4(1H,3H)-dione]",30 to 50 nM,≤ 15 nM
"COc1cc2nc(C)nc(N[C@H](C)c3cccc4c3CCS4(=O)=O)c2cc1[C@H]1CC[C@H](C(=O)N2CCN(CC3CCC4(CC3)CCN(C(=O)c3ccc(Cl)c(N5CCC(=O)NC5=O)c3)CC4)CC2)CC1 [Example 10, 1-(2-chloro-5-(9-((4-((1R,4R)-4-(4-(((R)-1-(1,1-dioxo-2,3-dihydrobenzo[b]thiophen-4-yl)ethyl)amino)-7-methoxy-2-methylquinazolin-6-yl)cyclohexane-1-carbonyl)piperazin-1-yl)methyl)-3-azaspiro[5.5]undecane-3-carbonyl)phenyl)dihydropyrimidine-2,4(1H,3H)-dione]",≤ 15 nM,≤ 15 nM
"COc1cc2nc(C)nc(N[C@H](C)c3cc(N)cc(C(F)(F)F)c3)c2cc1[C@H]1CC[C@H](C(=O)N2CCN(CCOCC3CCN(C(=O)c4ccc(Cl)c(N5CCC(=O)NC5=O)c4)CC3)CC2)CC1 [Example 33, 1-(5-(4-((2-(4-((1R,4R)-4-(4-(((R)-1-(3-amino-5-(trifluoromethyl)phenyl)ethyl)amino)-7-methoxy-2-methylquinazolin-6-yl)cyclohexane-1-carbonyl)piperazin-1-yl)ethoxy)methyl)piperidine-1-carbonyl)-2-chlorophenyl)dihydropyrimidine-2,4(1H,3H)-dione]",100 to 1000 nM,≤ 15 nM
